From US8658661B2, “Oxadiazole inhibitors of leukotriene production” (Boehringer Ingelheim International GmbH, priority 2010, dated 2014)

What was measured:
[1] = tested on: biomarkers for myocardial infarction risk; conditions: clinical trial; cited from earlier work
[2] = target: T1, recombinant human FLAP protein (Homo sapiens, UniProt P20292); assay: FLAP binding assay (SPA, displacement of [125I]L-691,831); conditions: membranes of sf9 cells expressing recombinant human FLAP; [125I]L-691,831 probe; read-out: FLAP binding IC50
T1 construct: made in house; host or cells: Sf9 insect cells (100,000×g membrane pellet used)
T1 sequence (P20292 1-161): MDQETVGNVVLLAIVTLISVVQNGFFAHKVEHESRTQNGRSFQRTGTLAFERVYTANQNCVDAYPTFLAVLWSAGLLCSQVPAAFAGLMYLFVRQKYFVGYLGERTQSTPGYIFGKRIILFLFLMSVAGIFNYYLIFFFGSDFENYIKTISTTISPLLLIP
Outline: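 Membranes from sf9 cells expressing human FLAP in pH 7.5 Tris buffer (MgCl2, EDTA, PMSF). Non-specific binding defined with 10 μM cold L-691,831.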

[3] = tested on: synthesis of LTB4 in human whole blood; assay: Human whole blood assay (inhibition of LTB4 synthesis, calcimycin stimulated); type: cell-based; conditions: heparinized human whole blood, calcimycin 20 μM, plasma LTB4
Outline: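 Whole-blood cellular format, heparinized human donors: 15 min compound pretreatment, then 30 min calcimycin stimulation (20 μM final), both at 37° C. Low-speed centrifugation yields plasma, in which LTB4 is read by homogeneous time-resolved fluorescence immunoassay.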

human glomerulonephritis = conditions: clinical trial; cited from earlier work
[4] = tested on: apoE/LDL-R double knockout mice; conditions: oral dosing, high-fat diet from 2 months of age to 6 months; cited from earlier work
ApoE−/−xCD4dnTβRII mice = conditions: via infusion, treated for four weeks; cited from earlier work

Row | SMILES | IC50 [2] [nM] | IC50 [3] [nM] | other results
1 | O=C(O)[C@@H](c1ccc(OCc2ccc3ccccc3n2)cc1)C1CCCC1 [DG-031] |  |  | effect on biomarkers for myocardial infarction risk [1]: dose-dependent suppression of several biomarkers
2 | C[C@@](c1ccc(-c2ccc(N)nc2)cc1)(c1noc(N2CCC(O)CC2)n1)C1CC1 [Example 282, 1-(3-{(R)-1-[4-(6-Amino-pyridin-3-yl)-phenyl]-1-cyclopropyl-ethyl}-[1,2,4]oxadiazol-5-yl)-piperidin-4-ol] | 6.5 | 44 | 
3 | C[C@](c1ccc(-c2ccc(N)nc2)cc1)(c1noc(N2CCC(O)CC2)n1)C1CC1 [Example 283, 1-(3-{(S)-1-[4-(6-Amino-pyridin-3-yl)-phenyl]-1-cyclopropyl-ethyl}-[1,2,4]oxadiazol-5-yl)-piperidin-4-ol] | 16 | 920 | 
4 | COc1cncc(-c2ccc(C(C)(c3noc(-c4cnn(C)c4)n3)C3CC3)cc2)c1 (centres unmarked) [Example 286, 3-(4-{1-Cyclopropyl-1-[5-(1-methyl-1H-pyrazol-4-yl)-[1,2,4]oxadiazol-3-yl]-ethyl}-phenyl)-5-methoxy-pyridine] | 16 | 2100 | 
5 | CC(c1ccc(-c2cnc(N)nc2)cc1)(c1noc(N2CCC[C@@H](O)C2)n1)C1CC1 (stereo partly drawn) [Example 287, (R)-1-(3-{1-[4-(2-Amino-pyrimidin-5-yl)-phenyl]-1-cyclopropyl-ethyl}-[1,2,4]oxadiazol-5-yl)-piperidin-3-ol] | 7 | 150 | 
6 | CC(c1ccc(-c2cnc(N)nc2)cc1)(c1noc(N2CCC[C@H](O)C2)n1)C1CC1 (stereo partly drawn) [Example 288, (S)-1-(3-{1-[4-(2-Amino-pyrimidin-5-yl)-phenyl]-1-cyclopropyl-ethyl}-[1,2,4]oxadiazol-5-yl)-piperidin-3-ol] | 2.5 | 200 | 
7 | Cn1cc(-c2nc(C(C)(c3ccc(-c4cncc(OCc5ccccc5)c4)cc3)C3CC3)no2)cn1 (centres unmarked) [Example 290, 3-Benzyloxy-5-(4-{1-cyclopropyl-1-[5-(1-methyl-1H-pyrazol-4-yl)-[1,2,4]oxadiazol-3-yl]-ethyl}-phenyl)-pyridine] | 22 | 2000 | 
8 | CN(c1nc(C(C)(c2ccc(-c3cnc(N)nc3)cc2)C2CC2)no1)C1CCC(O)CC1 (centres unmarked) [Example 297, 4-[(3-{1-[4-(2-Amino-pyrimidin-5-yl)-phenyl]-1-cyclopropyl-ethyl}-[1,2,4]oxadiazol-5-yl)-methyl-amino]-cyclohexanol] | 8.5 | 79 | 
9 | CC(C)(C)Sc1c(CC(C)(C)C(=O)O)n(Cc2ccc(Cl)cc2)c2ccc(OCc3ccc4ccccc4n3)cc12 [MK-591] |  |  | effect on proteinuria in human glomerulonephritis (human glomerulonephritis): reduce proteinuria
10 | CC(C)c1ccc2c(c1)c(SC(C)(C)C)c(CC(C)(C)C(=O)O)n2Cc1ccc(Cl)cc1 [MK-886] |  |  | decrease in plaque coverage in the aorta [4]: 56%; decrease in plaque coverage in the aortic root [4]: 43%; decrease in plaque area in the aortic root (ApoE−/−xCD4dnTβRII mice): ~40%

Continued, in another order:

Row | IC50 [2] [nM] | IC50 [3] [nM] | SMILES | other results
11 | 5 | 160 | CN(C)C(=O)Cn1cc(-c2nc([C@@](C)(c3ccc(-c4cnc(N)c(C(F)(F)F)c4)cc3)C3CC3)no2)cn1 [Example 281, 2-[4-(3-{(R)-1-[4-(6-Amino-5-trifluoromethyl-pyridin-3-yl)-phenyl]-1-cyclopropyl-ethyl}-[1,2,4]oxadiazol-5-yl)-pyrazol-1-yl]-N,N-dimethyl-acetamide] | 
12 | 4.7 | 200 | CN(C)C(=O)Cn1cc(-c2nc([C@@](C)(c3ccc(-c4cnc5c(c4)CCN5)cc3)C3CC3)no2)cn1 [Example 284, 2-[4-(3-{(R)-1-Cyclopropyl-1-[4-(2,3-dihydro-1H-pyrrolo[2,3-b]pyridin-5-yl)-phenyl]-ethyl}-[1,2,4]oxadiazol-5-yl)-pyrazol-1-yl]-N,N-dimethyl-acetamide] | 
13 | 7 | 190 | Cc1nc(N)cnc1-c1ccc([C@](C)(c2noc(-c3cnn(CC(=O)N(C)C)c3)n2)C2CC2)cc1 [Example 285, 2-[4-(3-{(R)-1-[4-(5-Amino-3-methyl-pyrazin-2-yl)-phenyl]-1-cyclopropyl-ethyl}-[1,2,4]oxadiazol-5-yl)-pyrazol-1-yl]-N,N-dimethyl-acetamide] | 
14 | 22 | 1000 | CN(C)C(=O)Cn1cc(-c2nc(C(C)(c3ccc(-c4cnc(N)c(C(F)(F)F)n4)cc3)C3CC3)no2)cn1 (centres unmarked) [Example 289, 2-[4-(3-{1-[4-(5-Amino-6-trifluoromethyl-pyrazin-2-yl)-phenyl]-1-cyclopropyl-ethyl}-[1,2,4]oxadiazol-5-yl)-pyrazol-1-yl]-N,N-dimethyl-acetamide] | 
15 | 4.5 | 89 | CN(C)C(=O)Cn1cc(-c2nc([C@@](C)(c3ccc(-c4cnc(N)c(F)c4)cc3)C3CC3)no2)cn1 [Example 291, 2-[4-(3-{(R)-1-[4-(6-Amino-5-fluoro-pyridin-3-yl)-phenyl]-1-cyclopropyl-ethyl}-[1,2,4]oxadiazol-5-yl)-pyrazol-1-yl]-N,N-dimethyl-acetamide] | 
16 | 8.5 | 150 | Cc1nc(N)ccc1-c1ccc([C@](C)(c2noc(-c3cnn(CC(=O)N(C)C)c3)n2)C2CC2)cc1 [Example 292, 2-[4-(3-{(R)-1-[4-(6-Amino-2-methyl-pyridin-3-yl)-phenyl]-1-cyclopropyl-ethyl}-[1,2,4]oxadiazol-5-yl)-pyrazol-1-yl]-N,N-dimethyl-acetamide] | 
17 | 3.5 | 110 | CN(C)C(=O)Cn1cc(-c2nc([C@@](C)(c3ccc(-c4cnc(N)nc4F)cc3)C3CC3)no2)cn1 [Example 293, 2-[4-(3-{(R)-1-[4-(2-Amino-4-fluoro-pyrimidin-5-yl)-phenyl]-1-cyclopropyl-ethyl}-[1,2,4]oxadiazol-5-yl)-pyrazol-1-yl]-N,N-dimethyl-acetamide] | 
18 | 7 | 200 | CN(C)C(=O)Cn1cc(-c2nc([C@@](C)(c3ccc(-c4cnc(N)c(C#N)n4)cc3)C3CC3)no2)cn1 [Example 294, 2-[4-(3-{(R)-1-[4-(5-Amino-6-cyano-pyrazin-2-yl)-phenyl]-1-cyclopropyl-ethyl}-[1,2,4]oxadiazol-5-yl)-pyrazol-1-yl]-N,N-dimethyl-acetamide] | 
19 | 7.5 | 150 | CN(C)C(=O)Cn1cc(-c2nc(C(C)(c3ccc(-c4ncc(N)nc4C#N)cc3)C3CC3)no2)cn1 (centres unmarked) [Example 295, 2-[4-(3-{1-[4-(5-Amino-3-cyano-pyrazin-2-yl)-phenyl]-1-cyclopropyl-ethyl}-[1,2,4]oxadiazol-5-yl)-pyrazol-1-yl]-N,N-dimethyl-acetamide] | 
20 | 12 | 230 | CN(C)C(=O)Cn1cc(-c2nc(C(C)(c3ccc(-c4ccc(N)nc4C#N)cc3)C3CC3)no2)cn1 (centres unmarked) [Example 296] | 
21 | 10 | 130 | Cc1nc(N)nc(F)c1-c1ccc([C@](C)(c2noc(-c3cnn(CC(=O)N(C)C)c3)n2)C2CC2)cc1 [Example 298, 2-[4-(3-{(R)-1-[4-(2-Amino-4-fluoro-6-methyl-pyrimidin-5-yl)-phenyl]-1-cyclopropyl-ethyl}-[1,2,4]oxadiazol-5-yl)-pyrazol-1-yl]-N,N-dimethyl-acetamide] | 
